In publication PMC8224038, “Anti-Leukemic Properties of Aplysinopsin Derivative EE-84 Alone and Combined to BH3 Mimetic A-1210477” (Marine Drugs, 2021):
Where two headings read alike, the source gives them in different places.

Columns and labels:
[1] = system: K562 cells; test: Cell cycle analysis (PI, FACS); format: cell-based, human; details: Celecoxib 40 μM
Experimental: Cells were collected and fixed in 70% ethanol. DNA was stained with propidium iodide (PI) solution (1 μg/mL, Sigma-Aldrich, St. Louis, MO, USA) in 1XPBS (Biosesang, Seongnam, Korea) for 30 min at 37 °C, supplemented with RNase A (100 μg/mL, Roche, Basel, Switzerland). Samples were analyzed by flow cytometry using the FACSCalibur^TM system, Becton Dickinson (BD) Biosciences (San Jose, CA, USA). Data were recorded statistically (10,000 events/sample) using the Cell Quest software (BD Biosciences) and analyzed using Flow-Jo 8.8.5 software (Tree Star, Inc., Ashland, OR, USA).

[2] = system: K562IR cells; test: Trypan blue exclusion test, viability; format: cell-based; details: Homo sapiens, A-1210477 20 µM, 24 h
Experimental: (§1) Cell proliferation and viability were assessed by the trypan blue exclusion method (Lonza), and viable cells were counted using a hematocytometer (Marienfeld, Lauda-Königshofen, Germany). Differential toxicity was calculated by comparing the viability of RPMI 1788 cells to the viability of cancer cells (normal/cancer cells). The difference in viability was expressed in terms of fold change.

[3] = system: K562 cells; test: Annexin V APC/PI staining quantified by FACS; format: cell-based, human
Text: (§2) The percentage of apoptotic cells was quantified as the fraction of cells showing fragmented nuclei, as assessed by fluorescence microscopy (Nikon, Tokyo, Japan) after staining with Hoechst 33342 (Sigma-Aldrich) and propidium iodide (Sigma-Aldrich). In addition, apoptosis was confirmed by Annexin V APC (Biolegend, 640919)/propidium iodide (BD Biosciences, 556547) staining and fluorescence-activated cell sorter (FACS) analysis according to the manufacturer protocol (BD Biosciences, 556547).

[4] = system: K562 cells; test: Trypan blue exclusion test, viability; format: cell-based, human; details: for viability of K562 cells: concentrations up to 50 µM, 24, 48, 72 h
Experimental: as §1

[5] = system: K562 cells; test: Hoechst/PI staining by fluorescent microscopy; format: cell-based, human; details: K562, 24 h, A-1210477 10 µM alone (Figure 7D)
Text: as §2

[6] = system: K562 cells; test: Trypan blue exclusion test, proliferation (GI50); format: cell-based, human; details: concentrations up to 50 µM; 24, 48, 72 h
Experimental: as §1

[7] = system: RPMI 1788; test: Trypan blue exclusion test, viability (IC50) in noncancerous cells; format: cell-based, human; details: for IC50: read-out: IC50 (50% cell death)
Experimental: as §1

[8] = system: RPMI 1788; test: Trypan blue exclusion test, proliferation (GI50) in noncancerous cells; format: cell-based, human
Experimental: as §1

[9] = system: zebrafish embryos; test: Zebrafish toxicity; details: 24 h exposure
Experimental: For toxicity assays, embryos were treated with 0.003% phenylthiourea (PTU) 14 h before the assay to remove pigmentation. Then, 2 h before the assay, the embryo’s shell was eliminated and then treated for up to 24 h with aplysinopsin compounds at indicated concentrations in 24-well plates. Viability and abnormal development were assessed after 24 h of treatment under light microscopy (Carl Zeiss Stereomicroscope DV4, Seoul, Korea). Pictures were taken by fixing embryos onto a glass slide with 3% methylcellulose (Sigma-Aldrich).

[10] = K562, 24 h, A-1210477 10 μM, with z-VAD-fmk (50 μM)
[11] = K562, 24 h, Ima 1 μM, with z-VAD-fmk (50 μM)

With `Cc1ccc(-c2cc(C(F)(F)F)nn2-c2ccc(S(N)(=O)=O)cc2)cc1` [Celecoxib, reference compound] the “G1 cell cycle phase” value ([1]; K562, 48 h) was 64.77 ± 3.09%, the “G2/M cell cycle phase” value ([1]; K562, 48 h) was 17.44 ± 2.13% and the “S cell cycle phase” value ([1]; K562, 48 h) was 15.00 ± 0.93%. The “Sub-G1 cell cycle phase” value ([1]; K562, 48 h) was 2.79 ±1.90%, the “G1 cell cycle phase” value ([1]; K562, 72 h) was 68.43 ± 4.67% and the “G2/M cell cycle phase” value ([1]; K562, 72 h) was 16.96 ± 3.04%. For the same compound, the “S cell cycle phase” value ([1]; K562, 72 h) was 11.20 ± 2.37% and the “Sub-G1 cell cycle phase” value ([1]; K562, 72 h) was 3.41 ± 2.04%.
With `Cc1nn(C)c(COc2ccc(N3CCN(S(=O)(=O)N(C)C)CC3)cc2)c1-c1cccc2c(CCCOc3cccc4ccccc34)c(C(=O)O)n(CCN3CCOCC3)c12` [Compound A-1210477, reference compound] the viability at 20 µM [2] was 73 ± 3.6%, the “AnnV+/PI+ (%)” value ([3]; K562, 24 h, A-1210477 10 μM) was 4.73 ± 0.17% and the “AnnV+/PI− (%)” value ([3]; K562, 24 h, A-1210477 10 μM) was 9.31 ± 1.78%. For the same compound, the “Combined cell death (%)” value ([3]; K562, 24 h, A-1210477 10 μM) was 14.04 ± 3.24%, the “AnnV+/PI+ (%)” value [3, 10] was 2.81 ± 0.21% and the “AnnV+/PI− (%)” value [3, 10] was 6.04 ± 0.99%. For the same compound, the “Combined cell death (%)” value [3, 10] was 8.85 ± 2.28%, the viability at 10 µM ([4]; Homo sapiens, K562, A-1210477 10 µM, 24 h) was 79.3 ± 1.5% and the apoptotic cell death [5] was “about 14.5%”.
In the case of `N#CCC(=O)NNC(=O)C(=O)c1cn(Cc2ccccc2)c2ccccc12` [EE-31, 2-(1-Benzyl-1H-Indol-3-yl)-N′-(2-Cyanoacetyl)-2-Oxoacetohydrazide], the “overall growth of K562 cells” value [6] is reported as “only weakly affected”, the “viability of K562 cells” value [4] is reported as “only weakly affected” and the melting point is reported as 264 to 266 °C.
In the case of `COc1ccc2c(c1)c(C(=O)C(=O)NNC(=O)CC#N)cn2Cc1ccccc1` [EE-80, 2-(1-Benzyl-5-Methoxy-1H-Indol-3-yl)-N′-(2-Cyanoacetyl)-2-Oxoacetohydrazide], the “overall growth of K562 cells” value [6] is reported as “only weakly affected”, the “viability of K562 cells” value [4] is reported as “only weakly affected” and the melting point is reported as 199 to 201 °C.
With `COc1ccc2c(c1)c(C(=O)C(=O)NNC(=O)CC#N)cn2Cc1ccc(Cl)cc1Cl` [EE-92, N′-(2-Cyanoacetyl)-2-(1-(2,4-Dichlorobenzyl)-5-Methoxy-1H-Indol-3-yl)-2-Oxoacetohydrazide] the “overall growth of K562 cells” value [6] was “only weakly affected”, the “viability of K562 cells” value [4] was “only weakly affected” and the melting point was 242 to 244 °C.
With `Cc1ccc(NC(=O)c2ccc(CN3CCN(C)CC3)cc2)cc1Nc1nccc(-c2cccnc2)n1` [Ima, Imatinib, reference compound] the “AnnV+/PI+ (%)” value ([3]; K562, 24 h, Ima 1 μM) was 6.97 ± 0.88%, the “AnnV+/PI− (%)” value ([3]; K562, 24 h, Ima 1 μM) was 37.77 ± 4.07% and the “Combined cell death (%)” value ([3]; K562, 24 h, Ima 1 μM) was 44.74 ± 21.78%. The “AnnV+/PI+ (%)” value [3, 11] was 2.93 ± 0.15%, the “AnnV+/PI− (%)” value [3, 11] was 10.86 ± 3.57% and the “Combined cell death (%)” value [3, 11] was 13.79 ± 5.60%. For the same compound, the “AnnV+/PI+ (%)” value ([3]; K562, Ima 1 μM (Figure 3B)) was 31.27 ± 5.24%, the “AnnV+/PI− (%)” value ([3]; K562, Ima 1 μM (Figure 3B)) was 51.77 ± 2.29% and the “Combined cell death (%)” value ([3]; K562, Ima 1 μM (Figure 3B)) was 83.03 ± 14.50%.
“(Z)-5-((1H-Indol-3-yl)Methylene)-1,3-Dimethylimidazolidine-2,4-Dione [EE-115]” showed an IC50 ([7]; RPMI 1788, 24 h) greater than 50 µM, an IC50 ([7]; RPMI 1788, 48 h) greater than 50 µM and an IC50 ([7]; RPMI 1788, 72 h) greater than 50 µM. The “viability of RPMI 1788 cells” value ([7]; up to 50 µM, Figure S4B) was “reduced the viability”, the “overall growth of K562 cells” value [6] was “only weakly affected” and the GI50 ([8]; RPMI 1788, 24 h) was greater than 50 µM. The GI50 ([8]; RPMI 1788, 48 h) was 30.4 ± 1.95 µM, the GI50 ([8]; RPMI 1788, 72 h) was 27.7 ± 2.3 µM and the “viability of K562 cells” value [4] was “only weakly affected”. The “growth (relative body length) of zebrafish” value ([9]; concentrations up to 100 µM) was “did not affect”, the “survival rate of zebrafish” value ([9]; concentrations up to 100 µM) was “did not affect” and the “morphological changes of zebrafish” value ([9]; embryos 24 hpf, different concentrations) was “No significant morphological changes”.
